The nature of this data set: solvent given as SMILES.

Consider `CCCCCCCCC1(CCCCCCCC)c2cc(-c3ccc(C(F)(F)F)cc3)ccc2-c2ccc(N(c3ccc(-n4c5ccccc5c5ccccc54)cc3)c3ccc4c(c3)C(CCCCCCCC)(CCCCCCCC)c3cc(-c5ccc(C(F)(F)F)cc5)ccc3-4)cc21`, for which the absorption maximum was 375 nm (in C1CCOC1); 374 nm (in C1COCCO1); 370 nm (in CC#N); 371 nm (in CC(C)=O); 380 nm (in CCCCCC); 379 nm (in CCCCOCCCC). Also, the absorption maximum by setting is: (in CCN(CC)CC) 376 nm; (in CCOC(C)=O) 372 nm; (in CCOCC) 374 nm; (in CN(C)C=O) 373 nm; (in CS(C)=O) 371 nm; (in Cc1ccccc1) 379 nm. The absorption maximum (in ClC(Cl)Cl) stood at 382 nm, the absorption maximum (in ClCCl) came to 378 nm and the absorption maximum (in c1ccccc1) is given as 378 nm.

For the setting “in ClC(Cl)Cl”, `O=C1[C@@H]2[C@H](C(=O)N1c1cccc3cc4ccccc4cc13)[C@@H]1C=C[C@H]2C1` had an absorption maximum of 384 nm.

As to `[O-][n+]1c(/C=C/c2cccs2)nc(N2CCOCC2)c2c1CCCC2`, the absorption maximum (in ClCCl) came out at 400 nm.

Turning to `Cc1ccc(-n2c3ccccc3c3cc(C=C(C#N)C#N)ccc32)cc1`, the absorption maximum (in C1CCOC1) was found to be 407 nm; the absorption maximum (in CC#N) stood at 402 nm; the absorption maximum (in CC(C)=O) came out at 402 nm; the absorption maximum (in CCOC(C)=O) stood at 400 nm; the absorption maximum (in CO) was 402 nm; the absorption maximum (in CS(C)=O) was 407 nm. Further, the absorption maximum (in Cc1ccccc1) worked out at 406 nm and the absorption maximum (in ClC(Cl)Cl) is listed as 413 nm.

`CC(C)[Si](C#Cc1c2ccccc2c(C#Cc2c3ccccc3c(C#Cc3c4ccccc4c(C#Cc4c5ccccc5c(C#C[Si](C(C)C)(C(C)C)C(C)C)c5ccccc45)c4ccccc34)c3ccccc23)c2ccccc12)(C(C)C)C(C)C` returned an absorption maximum (in Cc1ccccc1) of 582 nm.

The compound `O=S(=O)([O-])c1ccc2c([O-])cc(S(=O)(=O)[O-])cc2c1` came in with an absorption maximum (in O) of 350 nm.

`CCOC(=O)c1c(-c2cc3cc(OC)ccc3oc2=O)nn(-c2cccc(C)c2)c1C(=O)OCC` returned an absorption maximum (in ClCCl) of 351 nm.

Consider `NCc1ccc2ccc3cccc4ccc1c2c34`, for which the absorption maximum is 341 nm (in CC#N), 340 nm (in CO) and 344 nm (in ClC(Cl)Cl).

`CN(C)c1ccc(/C=C/c2cc(/C=C/c3ccc(N(C)C)cc3)nc(/C=C/c3ccccc3)n2)cc1` registered an absorption maximum (in ClCCl) of 423 nm.

As for `Clc1ccccc1N1c2c(sc3ccccc23)Sc2sc3ccccc3c21`, the absorption maximum (in ClCCl) is listed as 400 nm.

As for `CN(C)c1ccc(-c2ccc(C#N)s2)s1`, for the setting “in CCO”, the absorption maximum is on record as 413 nm.

As to `CCCCCCN(CCCCCC)c1ccc(C#Cc2ccc(N(CCCCCC)CCCCCC)cc2)cc1`, the absorption maximum amounted to 380 nm (in CO) and 387 nm (in ClCCl).

Where the note is “in C1COCCO1”, `COC(=O)c1ccc(/C=C2\C=C(c3ccc(OC)c(OC)c3)OC2=O)cc1` yielded an absorption maximum of 423 nm.

`C(=C\c1ccnc(/C=C/c2ccc(N(c3ccccc3)c3ccccc3)cc2)n1)/c1ccc(N(c2ccccc2)c2ccccc2)cc1` registered an absorption maximum (in ClCCl) of 402 nm.

With `CC1(C)C(/C=C/C=C/C=C/C=C2/N(CCCCCC(=O)O)c3ccc(S(=O)(=O)[O-])cc3C2(C)C)=[N+](CCCCCC(=O)O)c2ccc(S(=O)(=O)[O-])cc21`, the absorption maximum runs as follows: (in CO) 753 nm; (in O) 748 nm.

Where the note is “in ClC(Cl)Cl”, `Cc1ccc(/C2=c3\cc/c(o3)=C(\c3ccc(C)cc3)c3ccc([nH]3)-c3ccc4n3[B-](F)(F)[N+]3=C(C=CC3=C4c3cccs3)c3ccc2[nH]3)cc1` showed an absorption maximum of 709 nm.

`CC(C)(C)c1ccc(C2=C(c3ccc(-n4c5ccccc5c5ccccc54)cc3)S(=O)(=O)c3c2sc(-c2ccc(-n4c5ccccc5c5ccccc54)cc2)c3-c2ccc(C(C)(C)C)cc2)cc1`: where the note is “in C1CCOC1”, the absorption maximum stood at 419 nm.

In turn, `C#Cn1c(-c2cc(-c3nc4ccccc4n3C#C)cc(-c3nc4ccccc4n3C#C)c2)nc2ccccc21` gave an absorption maximum (in ClCCl) of 305.5 nm.

Compound `Cc1ccccc1N1c2sc3ccccc3c2Sc2sc3ccccc3c21` came in with an absorption maximum (in ClCCl) of 325 nm.

For the setting “in ClCCl”, `Cc1cc2oc3ccccc3c2c2[nH]c3ccccc3c12` gave an absorption maximum of 337 nm.

`C(S/C=C/c1ccc(-c2ccc(/C=C/SC=C3CCCCCC3)cc2)cc1)=C1CCCCCC1` displayed an absorption maximum (in ClCCl) of 353 nm.

On to `F[Si-](F)(c1ccccc1)(c1ccccc1)c1cccc2ccccc12`, for which the absorption maximum (in C1CCOC1) was 286 nm.

Compound `CCOC(=O)c1c2c3c(ccc(F)c3c3cc4ccccc4cc13)N(C)C2=O` showed an absorption maximum (in CC#N) of 410 nm.

As to `Cc1cccc2c1nc1c(=O)n(C)c(=O)nc-1n2C`, for the setting “in CC#N”, the absorption maximum is 440 nm.

For the compound `CN(CCO)c1ccc(/C=C/C2=C(C#N)C(C(C#N)C#N)OC2(C)C)cc1` (configuration not stated), the absorption maximum by setting is: (in CC#N) 586 nm; (in CC(C)=O) 574 nm; (in CCO) 579 nm; (in CCOC(C)=O) 565 nm; (in CN(C)C=O) 588 nm; (in CO) 575 nm. The absorption maximum amounted to 595 nm (in CS(C)=O), 562 nm (in Cc1ccccc1), 575 nm (in ClCCl) and 587 nm (in O).

In the case of `c1ccc(-c2ccc(-c3ccccc3)cc2)cc1`, the absorption maximum (in C1CCOC1) is recorded as 281 nm, the absorption maximum (in C1COCCO1) is given as 276 nm and the absorption maximum (in CCO) was 280 nm.

As for `c1cc2ccc3[se]c4ccc5cccc6c(c1)c2c3c4c56`, where the note is “in ClC(Cl)Cl”, the absorption maximum turned out to be 416.5 nm.

`CC1=CC(C)=[N+]2C1=C(c1ccc(C)cc1)c1c(C)cc(/C=C/c3ccc4ccc5cccc6ccc3c4c56)n1[B-]2(F)F`: the absorption maximum (in CC1CCCO1) was 598 nm.

For the compound `COc1cnc(-c2cc[n+](C3=C(F)C(F)(F)C(F)(F)[C-]3F)cc2)s1`, the absorption maximum is reported as 407 nm (in CC#N); 408 nm (in CC(C)=O); 409 nm (in CCO); 410 nm (in CN(C)C=O); 407 nm (in CO); 410 nm (in CS(C)=O). For the same compound, the absorption maximum by setting is: (in ClC(Cl)Cl) 433 nm; (in ClCCl) 430 nm.

`F[Si-](F)(c1ccccc1)(c1ccccc1)c1cc2ccccc2c2ccccc12` gave an absorption maximum (in C1CCOC1) of 303 nm.

As to `CCOC(=O)CCCCCn1c2ccc(N)cc2c(=O)c2cc(N)ccc21`, for the setting “in O”, the absorption maximum is reported as 455 nm.

`CCOC(=O)c1cc2ccc3ccccc3c2c(C#N)c1N` showed an absorption maximum (in Cc1ccccc1) of 435 nm.

For `C(=C\c1ncc2ccccc2n1)/c1ccc(N(c2ccccc2)c2ccccc2)cc1`, the absorption maximum (in ClCCl) is 400 nm.

Regarding `COc1ccc2cc(C#Cc3ccc([N+](=O)[O-])cc3)ccc2c1`, the absorption maximum stood at 356 nm (in C1CCOC1), 360 nm (in ClC(Cl)Cl) and 356 nm (in ClCCl).

For the compound `CC1(C)CC(=O)C2=C(C1)Oc1ccc3ccc(O)cc3c1C2c1ccccn1` (configuration not stated), the absorption maximum was 335 nm (in C1CCOC1); 335 nm (in C1COCCO1); 334 nm (in CC#N); 276 nm (in CCCCCCC); 334 nm (in CCO); 341 nm (in CO). For the setting “in O”, this compound showed an absorption maximum of 274 nm.

Take `c1cc2ccc3cc4cccc5ccc6cc(c1)c2c3c6c54`: the absorption maximum (in ClCCl) worked out at 433 nm.

Regarding `Clc1nnc(O/N=C/c2ccc(N(c3ccccc3)c3ccccc3)cc2)nn1`, under “in ClCCl”, the absorption maximum is 518 nm.

The compound `COC(=O)c1[nH]c(-c2ccc(Br)cc2)c2nnc3ccc(OC)cc3c12` yielded an absorption maximum (in ClCCl) of 395 nm.

As to `Cc1ccc(C#Cc2ccc3ccc4cccc5ccc2c3c45)cc1`, the absorption maximum turned out to be 362 nm (in CCCCCC), 362 nm (in CCO), 362 nm (in CCOC(C)=O) and 365 nm (in ClCCl).

In turn, `CSC1=C(C)C2=C(c3ccc(C)cc3)c3c(C)c(Cl)c(C)n3[B-](F)(F)[N+]2=C1C` showed an absorption maximum (in C1CCOC1) of 518 nm.

Regarding `O=c1c2ccccc2[nH]c2ccccc12`, the absorption maximum is, setting by setting: (in CS(C)=O) 398 nm; (in O) 385 nm.

Regarding `c1ccc2c(c1)c1ccccc1c1[nH]c(-c3ccc(-c4nc5c6ccccc6c6ccccc6c5[nH]4)cc3)nc21`, the absorption maximum runs as follows: (in C1CCOC1) 411 nm; (in CC#N) 412 nm; (in CCO) 410 nm; (in CS(C)=O) 410 nm; (in ClCCl) 413 nm.

In the case of `CN1/C(=C/C=C/C2=[N+](C)c3ccccc3C2(C)C)Sc2ccccc21`, for the setting “in CS(C)=O”, the absorption maximum is on record as 549 nm.

On to `O=c1c2cc(-n3c4ccccc4c4ccccc43)ccc2sc2ccc(-n3c4ccccc4c4ccccc43)cc12`, for which the absorption maximum runs as follows: (in C1CCOC1) 408 nm; (in CCCCCC) 408 nm; (in Cc1ccccc1) 408 nm; (in ClC(Cl)Cl) 408 nm; (in ClCCl) 408 nm.

Regarding `CC1=[N+]2C(=C(c3ccc4c(c3)Cc3ccccc3-4)c3ccc(C)n3[B-]2(F)F)C=C1c1cc2n(c1)[B-](F)(F)[N+]1=CC=CC1=C2c1c(C)cc(C)cc1C`, the absorption maximum by setting is: (in C1CCCCC1) 597.5 nm; (in CCOC(C)=O) 598.5 nm.

Where the note is “in ClCCl”, `N#C/C(=C(/C#N)c1ccc(-c2ccncc2)cc1)c1ccc(-c2ccncc2)cc1` yielded an absorption maximum of 343 nm.

Turning to `COc1ccc2c3c(cccc13)C(=O)c1ccccc1-2`, the absorption maximum is listed as 421.05 nm (in CC(C)=O); 412.03 nm (in CCCCOCCCC); 418.06 nm (in CCOC(C)=O); 414.08 nm (in CCOCC); 423.01 nm (in Clc1ccccc1); 421.94 nm (in O=C1CCCCC1).

For the compound `Cc1ccc(C(=O)OCc2c(C)c(=O)n3c(=O)c(C)c(C)n23)cc1`, the absorption maximum (in CCO) was 376 nm.
